We go through 14 compounds from patent US20220340875A1, “METHODS OF CULTURING AND/OR EXPANDING STEM CELLS AND/OR LINEAGE COMMITTED PROGENITOR CELLS USING AMIDO COMPOUNDS” (IDEAYA BIOSCIENCES, INC., priority 2018, published 2022).

By IC50 is commonly meant the concentration at which inhibition is half-maximal. High values mean weaker potency, low ones greater potency.

The target in the experiment is T1, hAhR (Homo sapiens, UniProt P35869).
T1 construct: Stably integrated DRE-luciferase cell lines were generated by transducing the both cell lines with Cignal XRE luciferase reporter (Qiagen) lentiviral particles; endogenous in cells
T1 sequence (P35869 11-848): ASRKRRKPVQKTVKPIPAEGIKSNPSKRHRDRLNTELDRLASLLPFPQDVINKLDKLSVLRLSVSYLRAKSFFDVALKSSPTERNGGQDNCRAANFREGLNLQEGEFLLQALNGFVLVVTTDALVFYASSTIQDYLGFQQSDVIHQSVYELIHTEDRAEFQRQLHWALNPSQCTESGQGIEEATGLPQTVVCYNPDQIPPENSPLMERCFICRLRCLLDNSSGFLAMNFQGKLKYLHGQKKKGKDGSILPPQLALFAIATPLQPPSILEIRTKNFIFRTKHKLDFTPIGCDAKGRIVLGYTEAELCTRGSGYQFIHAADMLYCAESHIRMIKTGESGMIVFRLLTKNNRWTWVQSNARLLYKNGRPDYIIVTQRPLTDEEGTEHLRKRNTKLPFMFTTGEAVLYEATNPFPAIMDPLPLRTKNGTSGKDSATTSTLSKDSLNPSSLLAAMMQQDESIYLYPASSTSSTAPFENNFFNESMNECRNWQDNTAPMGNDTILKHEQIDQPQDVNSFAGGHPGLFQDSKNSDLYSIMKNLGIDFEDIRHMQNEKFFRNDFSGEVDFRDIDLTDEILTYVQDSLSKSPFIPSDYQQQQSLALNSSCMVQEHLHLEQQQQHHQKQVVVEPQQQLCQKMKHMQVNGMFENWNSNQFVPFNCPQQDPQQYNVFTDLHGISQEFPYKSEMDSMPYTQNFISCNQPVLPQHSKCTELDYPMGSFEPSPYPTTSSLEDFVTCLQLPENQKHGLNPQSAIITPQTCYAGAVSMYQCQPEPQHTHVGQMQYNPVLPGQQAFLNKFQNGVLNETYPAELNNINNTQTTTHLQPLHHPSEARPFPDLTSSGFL
Briefly: AhR DRE-luciferase reporter transcriptional assay, antagonist mode (TCDD-induced). The class given is cell-based. Particulars: HEPG2 DRE-Luc cells, 3 nM TCDD, 24 hour incubation, relative IC50. In a few lines:
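HepG2 cells carrying a stably integrated DRE-luciferase reporter, in OptiMEM with 0.5% FBS; semi-log compound doses added with 3 nM TCDD, 24 h incubation, firefly luciferase read-out. Percent maximal activity normalised between vehicle ± TCDD; relative IC50 taken as half-reduction between curve plateaus.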
A general note: A reporter such as luciferase makes a cellular process visible.
As for `Cc1cc(-c2ncc3cc(C(F)(F)F)ccc3n2)ccc1N(C)C(=O)c1cnn[nH]1` [Example 146, N-methyl-N-(2-methyl-4-(6-(trifluoromethyl)quinazolin-2-yl)phenyl)-1H-1,2,3-triazole-5-carboxamide], the IC50 lay within 1000 to 10000 nM.
With `Cc1cc(-c2ccc3cc(-c4nnn[nH]4)ccc3n2)ccc1NC(=O)c1ccnn1C` [Example 063, N-(4-(6-(1H-tetrazol-5-yl)quinolin-2-yl)-2-methylphenyl)-1-methyl-1H-pyrazole-5-carboxamide], the IC50 was in the range of 1000 to 10000 nM.
`Cc1cc(-c2ccc3cc(C4CC4)ccc3n2)ccc1NC(=O)c1ccnn1C` [Example 068, N-(4-(6-cyclopropylquinolin-2-yl)-2-methylphenyl)-1-methyl-1H-pyrazole-5-carboxamide]: the IC50 was in the range of 1000 to 10000 nM.
The value for `Cc1cc(-c2ccc3cc(F)ccc3n2)c(F)cc1NC(=O)c1ccnn1C` [Example 067, N-(5-fluoro-4-(6-fluoroquinolin-2-yl)-2-methylphenyl)-1-methyl-1H-pyrazole-5-carboxamide] was 500 to 1000 nM; that for `Cc1cc(-c2ncc3nc(C(F)(F)F)cc(C)c3n2)ccc1N(C)C(=O)c1cc(C(N)=O)nn1CC#N` [Example 198, 1-(cyanomethyl)-N5-methyl-N5-(2-methyl-4-(8-methyl-6-(trifluoro-methyl)pyrido[3,2-d]pyrimidin-2-yl)phenyl)-1H-pyrazole-3,5-dicarboxamide] was < 200 nM.
`COc1cc(C(=O)Nc2ccc(-c3ncc4cc(C(F)(F)F)ccc4n3)cc2C)ccn1` [Example 142, 2-methoxy-N-(2-methyl-4-(6-(trifluoromethyl)quinazolin-2-yl)phenyl)isonicotinamide]: the IC50 is < 200 nM.
`Cc1cc(-c2ccc3cc(F)ccc3n2)ccc1NC(=O)c1ccccn1` [Example 026, N-(4-(6-fluoroquinolin-2-yl)-2-methylphenyl)picolinamide] registered a half-inhibitory concentration (IC50) of 500 to 1000 nM.
On to `Cc1cc(-c2ncc3nc(C(F)(F)F)cc(C)c3n2)ccc1NC(=O)c1ccnc(C(N)=O)c1` [Example 166, N4-(2-methyl-4-(8-methyl-6-(trifluoromethyl)pyrido[3,2-d]pyrimidin-2-yl)phenyl)pyridine-2,4-dicarboxamide], for which the half-maximal inhibitory concentration (IC50) was < 200 nM.
The value for `Cc1cc(C(F)(F)F)nc2cnc(-c3ccc(NC(=O)C4CCOCC4)c(F)c3)nc12` [Example 186, N-(2-fluoro-4-(8-methyl-6-(trifluoromethyl)pyrido[3,2-d]pyrimidin-2-yl)phenyl)tetrahydro-2H-pyran-4-carboxamide] was 1000 to 10000 nM.
`Cc1cc(-c2ncc3nc(C(F)(F)F)cc(C)c3n2)ccc1N(C)C(=O)c1ccnn1CC(N)=O` [Example 171, 1-(2-amino-2-oxoethyl)-N-methyl-N-(2-methyl-4-(8-methyl-6-(trifluoromethyl)pyrido[3,2-d]pyrimidin-2-yl)phenyl)-1H-pyrazole-5-carboxamide] registered an IC50 of 200 to 500 nM.
The value for `Cc1cc(-c2ccc3ncn(C)c3c2)ccc1NC(=O)c1ccnn1C` [Example 089, 1-Methyl-N-(2-methyl-4-(1-methyl-1H-benzo[d]imidazol-6-yl)phenyl)-1H-pyrazole-5-carboxamide] was 1000 to 10000 nM; that for `Cc1cc(-c2ccc3nc(C(F)(F)F)ccc3n2)ccc1NC(=O)c1ccnn1C` [Example 102, 1-methyl-N-(2-methyl-4-(6-(trifluoromethyl)-1,5-naphthyridin-2-yl)phenyl)-1H-pyrazole-5-carboxamide] was < 200 nM.
`Cc1cc(-c2ncc3nc(C(F)(F)F)cc(C)c3n2)ccc1NC(=O)c1ccnn1C` [Example 147, 1-methyl-N-(2-methyl-4-(8-methyl-6-(trifluoromethyl)pyrido[3,2-d]pyrimidin-2-yl)phenyl)-1H-pyrazole-5-carboxamide]: the IC50 was < 200 nM.
On to `Cc1nc(-c2ccc3cc(F)ccc3n2)ccc1NC(=O)c1ccnn1C` [Example 045, N-(6-(6-fluoroquinolin-2-yl)-2-methylpyridin-3-yl)-1-methyl-1H-pyrazole-5-carboxamide], for which the concentration for half-maximal inhibition (IC50) fell in the range of 1000 to 10000 nM.
